Laboratory results taken from US10329235B2, “System and method for producing 1,4-cyclohexanedimethanol and 1,4- cyclohexanedicarboxylic acid from terephthalic acid” (ClearWaterBay CHDM Technology Limited, priority 2017, dated 2019).

Legend:
[1] = Dissolution of TPA and CHDA in water in stirred autoclave (Examples 1-3); format: physicochemical; conditions: Examples 1-3: 1.7-1.9 wt % TPA, 28.1-48.2 wt % CHDA, 50-70 wt % water, 170-190 °C, 10 MPa, 15 minutes
Experimental: These examples are provided to highlight and validate the use of the method based on the dissolution chart for setting solvent and recirculation flows. For each of these examples, a slurry was prepared in a stirred autoclave, by mixing pre-determined amounts of water, TPA in powder form, and CHDA (22% trans) in powder form. The autoclave was then pressurized to 10 MPa using nitrogen gas and the temperature was then raised to the pre-determined level. Samples were drawn after 15 minutes of operation at this temperature level and analyzed to determine the compositions of TPA and CHDA. The predetermined feed mixture compositions and the pre-determined temperature levels for these experiments are shown in Table 1 below. Each pre-determined feed mixture composition is chosen such that it very closely corresponds to water/TPA and recirculation/TPA flow ratios that may be used in actual operation according to the preferred values from FIG. 6.

[2] = Solubility of TPA in water; format: physicochemical
From the text: Based on this, it is clearly evident that it will be beneficial to have processes for production of CHDM and CHDA directly from TPA without going through an intermediate TPA derivative. As noted initially, the main hurdle for such processes is getting TPA into the liquid phase.

Row | Structure (SMILES) | Dissolution in water/TPA/CHDA mixture [1] | TPA Solubility ([2]; 150 °C) | TPA Solubility ([2]; 200 °C) | TPA Solubility ([2]; 250 °C)
1 | O=C(O)C1CCC(C(=O)O)CC1 (centres unmarked) [CHDA, 1,4-cyclohexanedicarboxylic acid] | completely dissolved | – | – | –
2 | O=C(O)c1ccc(C(=O)O)cc1 [TPA, terephthalic acid] | completely dissolved | 0.0022 wt fraction | 0.016 wt fraction | 0.11 wt fraction
